Consider one compound from BindingDB's records for PubMed 33569941 (n/a, 2021).

The assay addresses Tumor necrosis factor (Homo sapiens, UniProt P01375). As to the kind of experiment: Inhibition of human TNF-alpha secretion stimulated by LPS.

Broadly, the EC50 is the concentration giving half of the maximal effect. High values mean a need for much substance, low ones an effect from little substance.

Tumor necrosis factor, sequence (P01375 whole entry): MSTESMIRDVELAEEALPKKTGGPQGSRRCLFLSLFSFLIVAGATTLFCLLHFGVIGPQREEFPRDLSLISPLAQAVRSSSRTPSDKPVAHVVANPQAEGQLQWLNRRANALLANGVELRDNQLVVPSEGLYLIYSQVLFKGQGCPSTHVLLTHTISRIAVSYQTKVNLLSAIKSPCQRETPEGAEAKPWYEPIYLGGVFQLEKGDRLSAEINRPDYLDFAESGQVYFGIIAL

The compound `Cc1ccc(Cl)cc1Nc1cc(Cl)c2nonc2c1[N+](=O)[O-]` returned an EC50 of 300 nM.
